Test results taken from patent US20190177371A1, “NOVEL MODULATORS OF MELANOCORTIN RECEPTORS” (ARIZONA BOARD OF REGENTS ON BEHALF OF THE UNIVERSITY OF …, priority 2014, published 2019).

Assays:
hMC4R [1] = molecular target: T1, hMC4R (Homo sapiens, UniProt P32245); test: Adenylate cyclase (cAMP) assay in HEK293 cells expressing hMC4R
hMC3R [2] = molecular target: T2, hMC3R (Homo sapiens, UniProt P41968); test: Adenylate cyclase (cAMP) assay in HEK293 cells expressing hMC3R
hMC5R [3] = molecular target: T3, hMC5R (Homo sapiens, UniProt P33032); test: Adenylate cyclase (cAMP) assay in HEK293 cells expressing hMC5R
T3 sequence (P33032 whole entry): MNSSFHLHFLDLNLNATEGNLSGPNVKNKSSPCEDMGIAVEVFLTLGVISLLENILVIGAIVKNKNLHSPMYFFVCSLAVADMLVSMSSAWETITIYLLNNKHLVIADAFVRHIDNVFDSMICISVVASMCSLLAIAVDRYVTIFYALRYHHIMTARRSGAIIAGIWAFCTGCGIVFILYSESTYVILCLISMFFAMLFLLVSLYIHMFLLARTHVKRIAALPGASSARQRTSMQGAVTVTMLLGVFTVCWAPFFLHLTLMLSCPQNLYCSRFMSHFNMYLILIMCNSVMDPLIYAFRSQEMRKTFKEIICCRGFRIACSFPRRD

hMC1R [4] = molecular target: T4, hMC1R (Homo sapiens, UniProt Q01726); test: Adenylate cyclase (cAMP) assay in HEK293 cells expressing hMC1R
T4 sequence (Q01726 whole entry): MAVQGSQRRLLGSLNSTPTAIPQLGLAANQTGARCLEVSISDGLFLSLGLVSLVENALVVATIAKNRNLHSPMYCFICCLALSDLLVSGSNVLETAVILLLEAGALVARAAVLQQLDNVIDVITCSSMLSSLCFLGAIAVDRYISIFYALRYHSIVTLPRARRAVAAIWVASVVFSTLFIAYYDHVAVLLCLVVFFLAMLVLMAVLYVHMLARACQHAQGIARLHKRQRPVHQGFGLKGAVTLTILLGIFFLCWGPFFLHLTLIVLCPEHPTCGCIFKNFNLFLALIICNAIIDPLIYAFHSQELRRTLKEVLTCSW

hMC4R [5] = molecular target: T1, hMC4R; test: Competitive binding assay with [125I]-NDP-α-MSH on whole HEK293 cells expressing hMC4R
Experimental: (§1) The pharmacological characterization for the binding efficiencies greater than 70% are defined as competitive binding, binding efficiency less than 70% are non-competitive binding.
(§2) Receptor Binding Assay. Competition binding experiments were carried out using both of cloned cell line and melanoma cells (A375, ATCC). The whole HEK293 cells stably expressing human MC1, MC3, MC4, and MC5 receptors as described before. […] The assay medium was subsequently removed, the cells were washed once with basic medium, and then lysed by the addition of 100 μL of 0.1M NaOH and 100 μL of 1% Triton X-100.

hMC3R [6] = molecular target: T2, hMC3R; test: Competitive binding assay with [125I]-NDP-α-MSH on whole HEK293 cells expressing hMC3R
Experimental: as §1, §2

hMC1R [7] = molecular target: T4, hMC1R; test: Competitive binding assay with [125I]-NDP-α-MSH on whole HEK293 cells expressing hMC1R
Experimental: as §1, §2

hMC5R [8] = molecular target: T3, hMC5R; test: Competitive binding assay with [125I]-NDP-α-MSH on whole HEK293 cells expressing hMC5R
Experimental: as §1, §2

T1 sequence (P32245 whole entry): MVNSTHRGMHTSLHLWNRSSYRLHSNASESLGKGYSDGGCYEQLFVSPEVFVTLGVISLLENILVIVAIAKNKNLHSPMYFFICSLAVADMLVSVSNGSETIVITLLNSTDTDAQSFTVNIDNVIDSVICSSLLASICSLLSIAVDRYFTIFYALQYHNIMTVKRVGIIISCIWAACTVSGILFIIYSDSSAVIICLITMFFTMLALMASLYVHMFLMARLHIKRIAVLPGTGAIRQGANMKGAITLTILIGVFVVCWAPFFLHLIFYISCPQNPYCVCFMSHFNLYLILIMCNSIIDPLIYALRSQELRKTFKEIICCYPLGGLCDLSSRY
T2 sequence (P41968 whole entry): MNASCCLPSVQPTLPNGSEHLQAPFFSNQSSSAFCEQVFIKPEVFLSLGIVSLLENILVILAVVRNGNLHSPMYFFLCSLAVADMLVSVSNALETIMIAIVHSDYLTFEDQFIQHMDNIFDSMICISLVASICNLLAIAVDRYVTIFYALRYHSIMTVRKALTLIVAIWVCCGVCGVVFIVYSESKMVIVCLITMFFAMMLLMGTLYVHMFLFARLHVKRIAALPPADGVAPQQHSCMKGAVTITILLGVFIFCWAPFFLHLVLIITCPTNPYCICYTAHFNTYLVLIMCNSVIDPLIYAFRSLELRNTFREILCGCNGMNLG

| Substance | functional (cAMP) activity at hMC4R (in words) (hMC4R [1]) | functional (cAMP) activity at hMC3R (in words) (hMC3R [2]) | functional (cAMP) activity at hMC5R (in words) (hMC5R [3]) | functional (cAMP) activity at hMC1R (in words) (hMC1R [4]) | binding affinity at hMC4R (in words) (hMC4R [5]) | binding affinity at hMC3R (in words) (hMC3R [6]) | binding affinity at hMC1R (in words) (hMC1R [7]) | binding affinity at hMC5R (in words) (hMC5R [8]) |
| --- | --- | --- | --- | --- | --- | --- | --- | --- |
| Ac-Nle-c[Asp-(NMe)His-(NMe)nal-Arg-Trp-(NMe)Lys]-NH2 [Peptide 22] | all functional activities are abolished | all functional activities are abolished | all functional activities are abolished | all functional activities are abolished |  |  |  |  |
| Ac-Nle-c[Asp-(NMe)His-(NMe)nal-Arg-Trp-Lys]-NH2 [Peptide 5] |  |  |  |  | drastical loss of binding affinity |  |  |  |
| Ac-Nle-c[Asp-(NMe)His-(NMe)nal-Arg-Trp-Lys]-NH2 [Peptide 16] | universal antagonist | universal antagonist | universal antagonist | universal antagonist |  |  |  |  |
| Ac-Nle-c[Asp-(NMe)His-nal-(NMe)Arg-(NMe)Trp-Lys]-NH2 [Peptide 24] |  |  | selective partial agonist activity | selective partial agonist activity |  |  |  |  |
| Ac-Nle-c[Asp-(NMe)His-nal-(NMe)Arg-Trp-(NMe)Lys]-NH2 [Peptide 21] |  |  | retains agonist activity |  |  |  |  |  |
| Ac-Nle-c[Asp-(NMe)His-nal-Arg-(NMe)Trp-(NMe)Lys]-NH2 [Peptide 19] | no activities | no activities | no activities | no activities | good binding | good binding | good binding | good binding |
| Ac-Nle-c[Asp-(NMe)His-nal-Arg-(NMe)Trp-Lys]-NH2 [Peptide 13] |  |  | moderate selective antagonist |  |  |  |  |  |
| Ac-Nle-c[Asp-(NMe)His-nal-Arg-Trp-(NMe)Lys]-NH2 [Peptide 10] |  |  |  | selective agonist activities |  |  |  |  |
| Ac-Nle-c[Asp-His-(NMe)nal-(NMe)Arg-(NMe)Trp-Lys]-NH2 [Peptide 23] | all functional activities are abolished | all functional activities are abolished | all functional activities are abolished | all functional activities are abolished |  |  |  |  |
| Ac-Nle-c[Asp-His-(NMe)nal-(NMe)Arg-Trp-(NMe)Lys]-NH2 [Peptide 20] | almost a universal antagonist activity | very weak activity | almost a universal antagonist activity | almost a universal antagonist activity |  |  |  |  |
| Ac-Nle-c[Asp-His-(NMe)nal-(NMe)Arg-Trp-Lys]-NH2 [Peptide 14] | partial agonistic activities | partial agonistic activities |  | partial agonistic activities |  |  |  |  |
| Ac-Nle-c[Asp-His-(NMe)nal-Arg-(NMe)Trp-(NMe)Lys]-NH2 [Peptide 18] | partial agonist |  |  | full agonist activity |  |  |  |  |
| Ac-Nle-c[Asp-His-(NMe)nal-Arg-Trp-(NMe)Lys]-NH2 [Peptide 9] |  |  | very selective antagonist |  | drastically lost | drastically lost | drastically lost |  |
| Ac-Nle-c[Asp-His-nal-(NMe)Arg-Trp-(NMe)Lys]-NH2 [Peptide 8] |  | potent antagonist |  | potent agonist | decreases by 3 orders of magnitude | increases |  |  |
| Ac-Nle-c[Asp-His-nal-Arg-(NMe)Trp-Lys]-NH2 [Peptide 3] |  |  | selective agonist | greater loss of functional activity |  |  |  |  |
